Assay results from US8835617B2, “Polynucleotides encoding a human TRIM-Cyp fusion polypeptide, compositions thereof, and methods of using same” (priority 2008, dated 2014).

System: cell-associated HIV-1
Assay: hCD4+-Rag2-/-γc-/- mice infected with cell-associated HIV-1
Assay type: in vivo
Method: Furthermore, the previous infections were initiated with cell-free HIV-1. […] Untransduced (GFP^−) CD4^+ cells from the same donor were cultured side by side and infected with CXCR4-tropic HIV-1 prior to infection of reconstituted mice. […] Peripheral blood was analyzed one, two, and three weeks after infection and mice were sacrificed three weeks after infection (FIG. 71A).

## hT5Cyp: human TRIM5α fused at serine 322 to human cyclophilin A, SEQ ID NO:12
mouse, in vivo
  p24^+ of total human T cells in the infected thymus: 0.9%
  protection of total CD3^+ T cell numbers in the thymus: 3.7 fold
n=2
  CD3^+ T cells in thymus: 2×10^7
One week post-infection
  reduction in mean viral load vs hT5CypH126Q: 9.7 fold
Peripheral blood, three weeks post-infection
  CD4^+ T cell numbers relative to initial levels: ≥ 40%
thymus
  p24^+ of GFP^hi cells: few
  p24^+ of GFP^neg/lo cells: 3.2%
  reduction in total numbers of GFP^− p24^+ cells vs hT5CypH126Q: > 3.3 fold
Two weeks post-infection
  reduction in mean viral load vs hT5CypH126Q: 4.3 fold
